What all share (assay): growth of human tumour cells (NCI), 48 h
The subject of assay [1] is DLD-1 colon.
Assay [2] concerns SK-OV-3 ovarian.
In assay [3] the test system is XF 498 CNS.
Assay [4] concerns IGROV1 ovarian.
For assay [5], the system named is SW-620 colon.
Assay [6] deals with HOP-92 NSCLC.
Assay [7] deals with LXFL 529 NSCLC.
Assay [8] relates to M19-MEL melanoma.
Assay [9] concerns SR leukemia.
The test system of assay [10] is HCT-15 colon.
Assay [11] deals with DU-145 prostate.
The test system of assay [12] is MCF7 breast.

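Five compound concentrations were applied to cells in 96-well plates for 48 hours; endpoints were derived by simple linear interpolation of the resulting dose-response curve. TGI marks complete inhibition of growth.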

`COc1ccc(-c2cc(=O)c3ccc(O)cc3o2)c(OC)c1OC`: the TGI in assay [1], in assay [2], in [3], in assay [4], in assay [5] and in assay [6] was > 100 µM throughout. Also, the TGI in assay [7] and in [8] was > 100 µM throughout.
`CC1(C)OC(=O)C(=Cc2ccc(O)cc2)C(=O)O1`: the TGI in assay [9], in assay [2], in [3], in [4], in assay [10] and in assay [5] was > 100 µM in each case. Also, the TGI in assay [6], in assay [7] and in assay [8] was > 100 µM throughout.
Take `O=[S@@]1Nc2ccc(Br)cc2S1`: the TGI in [1], in assay [9], in assay [2], in [3], in [4] and in [5] was > 100 µM throughout. Besides, the TGI in assay [6], in [7] and in assay [8] was > 100 µM in each case.
On to `COc1cc2cnc3c4cc(OC(C)C)c(OC)cc4ccc3c2cc1OC`, for which the TGI in assay [1], in [2], in [3], in assay [4], in assay [10] and in assay [5] was > 100 µM throughout. In addition, the TGI in assay [7] and in assay [8] was > 100 µM in each case.
In the case of `CC(=O)C(CN(C(C)C)C(C)C)C(c1ccccc1)c1c(O)c2ccccc2oc1=O` (configuration not stated), the TGI in assay [1], in [9], in assay [2], in assay [4], in [10] and in [5] was > 100 µM each time. The TGI in assay [7] and in assay [8] was > 100 µM in each case.
For `CCOC(=O)C(Sc1ccccc1)c1c(OC)cc(=O)oc1/C=[N+](/[O-])c1ccc(N(C)C)cc1` (configuration not stated), the TGI is > 100 µM in assay [1]; > 100 µM in [2]; 27.7 µM in assay [3]; > 100 µM in [4]; 31.8 µM in assay [10]; 32.2 µM in [5]. In addition, the TGI stood at 27.2 µM in assay [7] and 37.5 µM in [8].
For the molecule `CC1=C(C(=O)Nc2ccccc2C)C(c2ccco2)C(C(=O)Nc2ccccc2C)=C(C)N1C`, the TGI in assay [1], in [9], in assay [2], in assay [3], in [4] and in [5] was > 100 µM throughout. Moreover, the TGI in assay [6], in assay [7] and in [8] was > 100 µM each time.
As to `CC(=O)NC1=C(NCC(C)(C)C)C(=O)c2ccccc2C1=O`, the TGI in assay [1] was > 100 µM; in assay [9], > 100 µM; in [2] it was > 100 µM; in assay [3], 65.5 µM; in [4], > 100 µM; in assay [10], > 100 µM. Also, the TGI was > 100 µM in assay [5], > 100 µM in assay [7] and 39.8 µM in assay [8].
Consider `COc1ccc(-n2/c(=N/C(=S)N(C)C)ss/c2=N\C(=S)N(C)C)cc1`, for which the TGI in [9], in assay [2], in assay [4], in assay [10], in assay [5] and in assay [8] was > 100 µM each time.
For the molecule `CN(CC(=O)O)S(=O)(=O)c1ccc2ccccc2c1`, the TGI in [1], in assay [2], in [3], in assay [4], in assay [10] and in assay [5] was > 100 µM in each case. The TGI in [6], in assay [7] and in assay [8] was > 100 µM throughout.
For the molecule `COc1cccc(NC(=O)CC(=O)n2nc(C)c(N=Nc3ccccc3)c2C)c1`, the TGI in [1], in assay [9], in assay [2], in [3], in assay [4] and in assay [5] was > 100 µM each time. Besides, the TGI in assay [6], in [7] and in [8] was > 100 µM each time.
With `O=C(/C=C/c1ccccc1Cl)c1ccc(Cl)c(Cl)c1`, the TGI amounted to 30.1 µM in [1]; 54.8 µM in assay [9]; 51.3 µM in [2]; 25 µM in [4]; 32.2 µM in assay [10]; 28.3 µM in [5]. Further, the TGI in assay [6] came out at 58.1 µM; in assay [7], 29.6 µM; in [8], 29.8 µM.
`Cc1nc2c(nc1C)C(=O)c1ccccc1C2=O`: the TGI in assay [1] worked out at 47.9 µM; in [9] it was 28.2 µM; in assay [2] it was 82.6 µM; in assay [11], 2.72 µM; in [4] it was 27.2 µM; in assay [10] it was 8.3 µM. The TGI in [5] was 10.1 µM; in assay [6], 45 µM; in assay [7], > 58.3 µM; in [12], 3.59 µM; in [8], 1.07 µM.
`CC(=O)OC1COC(n2c(=S)n(-c3ccc(C)cc3)c(=O)c3ccccc32)C(OC(C)=O)C1OC(C)=O` (configuration not stated): the TGI in [1], in assay [2], in assay [3], in assay [4], in assay [10] and in [5] was > 100 µM in each case. In addition, the TGI in assay [6], in assay [7] and in [8] was > 100 µM each time.
Take `CCOC(=O)COc1cccc2c1C(=O)CCO2`: the TGI in [1], in [2], in assay [3], in [4], in [10] and in [5] was > 100 µM in each case. The TGI in assay [7] and in assay [8] was > 100 µM in each case.
For `COC(=O)[C@@]12C3=NO[C@]1(C(=O)OC)C(O[Si](C)(C)C(C)(C)C)[C@H]1OC(C)(C)O[C@H]1[C@@H]2C(OCc1ccccc1)CC3` (some centres not stated), the TGI was > 100 µM in assay [1]; > 100 µM in assay [2]; > 100 µM in assay [4]; > 100 µM in assay [10]; > 100 µM in assay [5]; 22.6 µM in [6]. The TGI in [7] and in assay [8] was > 100 µM throughout.

Source of the values: PubChem BioAssay (NCI).
